Assay results from PubChem BioAssay AID248 (DTP/NCI, 2004).
Where “and” joins values, the source holds several entries; their conditions need not be identical. Equal values may be shown once. Inconclusive results and toxic doses are left out. Cut-off read from the data, not from the text of the source: active = T/C of 150% or more; inactive = T/C below 125%.

System: L1210 leukemia ip in BDF1 mice, survival T/C
Experiment: NCI In Vivo Anticancer Drug Screen. Data for tumor model L1210 Leukemia (intraperitoneal) in B6D2F1 (BDF1) mice
Conditions: endpoint: mean survival time, higher = longer survival
Outline: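 Survival endpoint. Drug-treated group vs vehicle group, expressed as T divided by C. Tumor passaged by transplantation.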

[1] = dose: 100.0 mg/kg/injection, schedule: Q04DX002 (ip), vehicle: Klucel (hydroxypropylcellulose) (HPC)
[2] = dose: 200.0 mg/kg/injection, schedule: Q04DX002 (ip), vehicle: Klucel (hydroxypropylcellulose) (HPC)
[3] = dose: 400.0 mg/kg/injection, schedule: Q04DX002 (ip), vehicle: Klucel (hydroxypropylcellulose) (HPC)
[4] = dose: 100.0 mg/kg/injection, schedule: Q04DX003 (ip), vehicle: saline with Tween-80
[5] = dose: 200.0 mg/kg/injection, schedule: Q04DX003 (ip), vehicle: saline with Tween-80
[6] = dose: 400.0 mg/kg/injection, schedule: Q04DX003 (ip), vehicle: saline with Tween-80
[7] = dose: 100.0 mg/kg/injection, schedule: Q01DX009 (ip), vehicle: saline with Tween-80
[8] = dose: 25.0 mg/kg/injection, schedule: Q04DX002 (ip), vehicle: saline
[9] = dose: 50.0 mg/kg/injection, schedule: Q04DX002 (ip), vehicle: saline
[10] = dose: 50.0 mg/kg/injection, schedule: Q04DX003 (ip), vehicle: saline
[11] = dose: 100.0 mg/kg/injection, schedule: Q04DX002 (ip), vehicle: saline
[12] = dose: 200.0 mg/kg/injection, schedule: Q01DX009 (ip), vehicle: saline with Tween-80
[13] = dose: 400.0 mg/kg/injection, schedule: Q01DX009 (ip), vehicle: saline with Tween-80
[14] = dose: 50.0 mg/kg/injection, schedule: Q01DX001 (ip), vehicle: carboxymethylcellulose (CMC)
[15] = dose: 100.0 mg/kg/injection, schedule: Q01DX001 (ip), vehicle: carboxymethylcellulose (CMC)
[16] = dose: 200.0 mg/kg/injection, schedule: Q01DX001 (ip), vehicle: carboxymethylcellulose (CMC)
[17] = dose: 400.0 mg/kg/injection, schedule: Q01DX001 (ip), vehicle: carboxymethylcellulose (CMC)

Measured: T/C

Cc1cccc(C)c1OC(=O)Nc1cccc2ccccc12
inactive: dose: 12.5 mg/kg/injection, schedule: Q04DX002 (ip), vehicle: Klucel (hydroxypropylcellulose) (HPC) 105 % of control | dose: 25.0 mg/kg/injection, schedule: Q04DX002 (ip), vehicle: Klucel (hydroxypropylcellulose) (HPC) 118 % of control | dose: 50.0 mg/kg/injection, schedule: Q04DX002 (ip), vehicle: Klucel (hydroxypropylcellulose) (HPC) 112 % of control | [1] 95 % of control | [2] 97 % of control | [3] 89 % of control

CC(=O)Nc1cccc2c1C(=O)c1ccccc1-2
inactive: [4] 102 % of control | [5] 112 % of control | [6] 102 % of control

Nc1nc(Nc2ccc(Cl)c(Cl)c2)cc(=O)[nH]1
inactive: dose: 200.0 mg/kg/injection, schedule: Q01DX Z (ip), vehicle: methylcellulose (MC) 86 % of control

CCCCCCCCCCCCC(O)(CCC)C(=O)O (stereo not given)
inactive: [1] 102 % of control | [2] 98 % of control | [3] 98 % of control

CCc1nc2ccccc2c(=O)n1-c1ccc(Cl)cc1
inactive: dose: 50.0 mg/kg/injection, schedule: Q01DX009 (ip), vehicle: saline with Tween-80 92 % of control | [7] 95 % of control

O=C1CCCCCCNCCCCCC1
inactive: dose: 100.0 mg/kg/injection, schedule: Q01DX001 (ip), vehicle: acetone 97 % of control | dose: 200.0 mg/kg/injection, schedule: Q01DX001 (ip), vehicle: acetone 108 % of control | dose: 400.0 mg/kg/injection, schedule: Q01DX001 (ip), vehicle: acetone 103 % of control

CC1(C)N=C(N)N=C(N)N1c1cccc([N+](=O)[O-])c1
inactive: [8] 93 % of control | dose: 25.0 mg/kg/injection, schedule: Q04DX003 (ip), vehicle: saline 106 % of control | [9] 96 % of control | [10] 105 % of control | [11] 91 % of control | dose: 100.0 mg/kg/injection, schedule: Q04DX003 (ip), vehicle: saline 98 % of control and 111 % of control

N#Cc1ccc2cn[nH]c2c1
inactive: [4] 92 % of control | [5] 101 % of control | [6] 99 % of control

COc1ccc(OC)c(CCC(O)CCc2cc(OC)ccc2OC)c1
inactive: [7] 99 % of control | [4] 96 % of control | [12] 90 % of control | [5] 98 % of control | [13] 94 % of control | [6] 94 % of control

COC1OC2COCOC2C(O)C1O (stereo not given)
inactive: [8] 93 % of control and 104 % of control | [9] 108 % of control | [11] 100 % of control [middle of 4 runs] | dose: 200.0 mg/kg/injection, schedule: Q04DX002 (ip), vehicle: saline 106 % of control and 100 % of control | dose: 400.0 mg/kg/injection, schedule: Q04DX002 (ip), vehicle: saline 103 % of control and 100 % of control

CNc1ccccc1C(=O)N/N=C/Cc1ccccc1
inactive: [1] 103 % of control | [2] 92 % of control | [3] 106 % of control

COc1ccc(OC)c(C(=O)CSC(=S)OC(C)C)c1
inactive: [1] 96 % of control | [2] 92 % of control | [3] 96 % of control

CN(C)c1ccc(N=C2C(c3ccccc3)=CC(c3ccccc3)=C2c2ccccc2)cc1
inactive: [14] 89 % of control | [15] 91 % of control | [16] 94 % of control | [17] 97 % of control

CSc1ccccc1N=NN(C)C
inactive: dose: 100.0 mg/kg/injection, schedule: Q01DX009 (ip), vehicle: Klucel (hydroxypropylcellulose) (HPC) 101 % of control | dose: 200.0 mg/kg/injection, schedule: Q01DX009 (ip), vehicle: Klucel (hydroxypropylcellulose) (HPC) 97 % of control and 105 % of control | dose: 400.0 mg/kg/injection, schedule: Q01DX009 (ip), vehicle: Klucel (hydroxypropylcellulose) (HPC) 95 % of control and 100 % of control | dose: 800.0 mg/kg/injection, schedule: Q01DX009 (ip), vehicle: Klucel (hydroxypropylcellulose) (HPC) 121 % of control

O=C1c2cc([N+](=O)[O-])ccc2-c2cc(Cl)c([N+](=O)[O-])cc21
inactive: [14] 102 % of control | [15] 91 % of control | [16] 91 % of control | [17] 93 % of control

CCOC(=O)c1c(O)cc(C)[nH]c1=O
inactive: dose: 50.0 mg/kg/injection, schedule: Q01DX001 (ip), vehicle: saline 102 % of control | dose: 100.0 mg/kg/injection, schedule: Q01DX001 (ip), vehicle: saline 96 % of control | dose: 200.0 mg/kg/injection, schedule: Q01DX001 (ip), vehicle: saline 104 % of control | dose: 400.0 mg/kg/injection, schedule: Q01DX001 (ip), vehicle: saline 104 % of control

CC1c2ccccc2N(CCCN(C)C)c2ccccc21
inactive: dose: 4.0 mg/kg/injection, schedule: Q01DX015 (ip), vehicle: saline 105 % of control | dose: 8.0 mg/kg/injection, schedule: Q01DX015 (ip), vehicle: saline 103 % of control | dose: 16.0 mg/kg/injection, schedule: Q01DX015 (ip), vehicle: saline 97 % of control | dose: 32.0 mg/kg/injection, schedule: Q01DX015 (ip), vehicle: saline 97 % of control and 100 % of control | [10] 108 % of control | dose: 64.0 mg/kg/injection, schedule: Q01DX015 (ip), vehicle: saline 97 % of control | dose: 128.0 mg/kg/injection, schedule: Q01DX015 (ip), vehicle: saline 92 % of control

O=C(Nc1ccc(Cl)c(Cl)c1)c1ccc2c(c1)C(=O)OC2=O
inactive: [7] 106 % of control | [12] 106 % of control | [13] 106 % of control

COc1cc(OC)c(/C=C/c2cnc3ccccc3n2)c(OC)c1
inactive: dose: 3.13 mg/kg/injection, schedule: Q04DX002 (ip), vehicle: saline with Tween-80 104 % of control | dose: 6.25 mg/kg/injection, schedule: Q04DX002 (ip), vehicle: saline with Tween-80 95 % of control | dose: 12.5 mg/kg/injection, schedule: Q04DX002 (ip), vehicle: saline with Tween-80 88 % of control | dose: 50.0 mg/kg/injection, schedule: Q04DX002 (ip), vehicle: saline with Tween-80 90 % of control

CC(C)/C=N/NC(=O)CCCCCCCCC(=O)N/N=C/C(C)C
inactive: dose: 100.0 mg/kg/injection, schedule: Q01DX001 (ip), vehicle: saline with Tween-80 97 % of control | [7] 105 % of control and 106 % of control | dose: 100.0 mg/kg/injection, schedule: Q04DX002 (ip), vehicle: saline with Tween-80 97 % of control | [4] 111 % of control | dose: 200.0 mg/kg/injection, schedule: Q01DX001 (ip), vehicle: saline with Tween-80 92 % of control | [12] 100 % of control and 108 % of control | dose: 200.0 mg/kg/injection, schedule: Q04DX002 (ip), vehicle: saline with Tween-80 97 % of control | [5] 110 % of control | dose: 400.0 mg/kg/injection, schedule: Q01DX001 (ip), vehicle: saline with Tween-80 97 % of control | [13] 93 % of control and 108 % of control | dose: 400.0 mg/kg/injection, schedule: Q04DX002 (ip), vehicle: saline with Tween-80 94 % of control and 95 % of control | [6] 101 % of control

Cc1cc(S(=O)(=O)F)ccc1NC(=O)NCc1ccc(N2C(N)=NC(N)=NC2(C)C)cc1
inactive: dose: 100.0 mg/kg/injection, schedule: Q04DX003 (ip), vehicle: Klucel (hydroxypropylcellulose) (HPC) 108 % of control | dose: 200.0 mg/kg/injection, schedule: Q04DX003 (ip), vehicle: Klucel (hydroxypropylcellulose) (HPC) 100 % of control | dose: 400.0 mg/kg/injection, schedule: Q04DX003 (ip), vehicle: Klucel (hydroxypropylcellulose) (HPC) 106 % of control

CC1C(=O)CCC2(C)CCC(C(=O)/C=C/c3ccco3)CC12 (stereo not given)
inactive: dose: 100.0 mg/kg/injection, schedule: Q01DX001 (ip), vehicle: Klucel (hydroxypropylcellulose) (HPC) 100 % of control | dose: 200.0 mg/kg/injection, schedule: Q01DX001 (ip), vehicle: Klucel (hydroxypropylcellulose) (HPC) 102 % of control | dose: 400.0 mg/kg/injection, schedule: Q01DX001 (ip), vehicle: Klucel (hydroxypropylcellulose) (HPC) 89 % of control

O=S(=O)(O)c1cc(O)c2c(N=Nc3c(S(=O)(=O)O)cc4cc(S(=O)(=O)O)cc(N=Nc5c(S(=O)(=O)O)cc6cc(S(=O)(=O)O)cc(O)c6c5O)c4c3O)cc(S(=O)(=O)O)cc2c1
inactive: [4] 94 % of control | [5] 96 % of control | [6] 96 % of control
